Assay results taken from patent publication US12622910B2, “Inhibitors of Bruton's tyrosine kinase and methods of their use” (Janssen Pharmaceutica NV, priority 2021, dated 2026).
Like-named read-outs stand apart in the source and are kept apart here. Marks after values point to notes of the source that are not given here.

Test: Phase 1 first-in-human study, plasma pharmacokinetics
Assay type: in vivo
Settings: for half-life / Tmax / AUC(0-inf) / Cmax / AUC(0-t): male, human, plasma, po
Procedure: Safety, tolerability, PK, and BTKO were assessed for six doses of compound of Formula (III) oral solution (4, 12, 36, 100, 200, 400 mg) in participants under fasted conditions. The SAD part comprised 10 cohorts of 8 participants each (FIG. 1). In each cohort receiving compound of Formula (III) oral solution (Cohorts 1-9), 6 participants were randomized to receive compound of Formula (III) and 2 to receive placebo. All participants in Cohort 10 received compound of Formula (III) as an oral capsule. All 10 cohorts included 2 sentinel participants who were dosed ˜24 hours prior to the rest of the cohort. In cohorts receiving compound of Formula (III) oral solution, 1 sentinel participant received compound of Formula (III) and the other received placebo.
Six male escalating dose cohorts received a single oral dose of 4, 12, 36, 100, 200, 400 mg compound of Formula (III) or placebo solution under fasted conditions. Gender effects were assessed in 2 female cohorts whose participants received either a 36 or 100 mg dose of compound of Formula (III) or placebo as an oral solution under fasted conditions. Food effects were evaluated in a male cohort receiving compound of Formula (III) 100 mg or placebo as an oral solution after a high-fat breakfast.
Safety, tolerability, and PK of a solid dose formulation of compound of Formula (III) were assessed in an additional male cohort (Cohort 10) that received 3×35 mg (105 mg) of compound of Formula (III) in the fasted state. Since all the participants received the same dose of compound of Formula (III), this cohort was not blinded.
Safety, tolerability, PK, and BTKO following multiple compound of Formula (III) doses were evaluated in 3 dose escalation cohorts with a total of 18 participants (males: 9, females: 9) receiving active study drug. In each cohort, 3 males and 3 females were randomized to receive 36 mg once-daily (QD), 100 mg QD, or 200 mg QD compound of Formula (III) oral solution and 3 participants (males: 2; female: 1) to receive placebo. Two male participants in each cohort served as sentinel participants: one received compound of Formula (III) and other received placebo ˜48 hours prior to other participants in the cohort. All safety and tolerability data (through the follow-up visit), PK data (through at least 24 hours after last dose administration), and all available PD data were reviewed from each cohort before a decision was made to dose escalate.
Sample collection—For the PK assessment of compound of Formula (III), venous blood samples (2 to 4 mL each) were collected predose and at 15 min, 0.5, 1, 1.5, 2, 2.5, 3, 4, 6, 8, 12, 24, 36, 48, and 72 hours post-dose in Part 1. In Part 2, samples were collected predose and at 15 min, 0.5, 1, 1.5, 2, 2.5, 3, 4, 6, 8, 12 hours post-dose on day 1, predose and 1 hour post-dose on days 2-9, and predose and at 15 min, 0.5, 1, 1.5, 2, 2.5, 3, 4, 6, 8, 12, 24, 48, and 72 hours after the last dose on day 10. Plasma samples were analyzed to determine concentrations of compound of Formula (III) using a scientific validated, specific, and sensitive liquid chromatography-mass spectrometry (LC-MS/MS) method.
The PK analysis for the compound of Formula (III) samples was performed using a non-compartmental method with validated Phoenix® WinNonlin® (version 8.0, Certara L.P.).

[1] = 36 mg, single 36 mg oral solution, male fasted
[2] = 100 mg, single 100 mg oral solution, male fasted
[3] = 100 mg, single 100 mg oral solution, male fed (high-fat breakfast)
[4] = 105 mg, single 105 mg (3 × 35 mg) oral capsule, male fasted
[5] = 200 mg, single 200 mg oral solution, male fasted
[6] = 400 mg, single 400 mg oral solution, male fasted
[7] = single 12 mg oral solution, male fasted
[8] = single 100 mg oral solution, female fasted

C=CC(=O)N[C@H]1CCC[C@H]1NC(=O)c1sc2nccc3c2c1NC(=O)N3c1cnc(CC(C)C)cc1C (atropisomer, axis not shown) [compound of Formula (III), N-((1R,2S)-2-Acrylamidocyclopentyl)-5-(S)-(6-isobutyl-4-methylpyridin-3-yl)-4-oxo-4,5-dihydro-3H-1-thia-3,5,8-triazaacenaphthylene-2-carboxamide]
half-life (12 mg, single 12 mg oral solution, male fasted, read-out: t1/2, λz (converted)): 1.6 h | Tmax (12 mg, single 12 mg oral solution, male fasted, read-out: tmax, median (min-max)): 1 h | AUC(0-inf) [1]: 644 ng·h/mL | Cmax [1]: 200 ng/mL | AUC(0-t) (36 mg, single 36 mg oral solution, male fasted, read-out: AUC0-24 h): 649 ng·h/mL | AUC(0-t) (36 mg, single 36 mg oral solution, male fasted, read-out: AUClast): 649 ng·h/mL | half-life (36 mg, single 36 mg oral solution, male fasted, read-out: t1/2, dom (converted)): 1.6 h | half-life (36 mg, single 36 mg oral solution, male fasted, read-out: t1/2, λz (converted)): 2.1 h | Tmax (36 mg, single 36 mg oral solution, male fasted, read-out: tmax, median (min-max)): 1 h | AUC(0-inf) [2]: 20.6 ng·h/mL | Cmax [2]: 923 ng/mL | AUC(0-t) (100 mg, single 100 mg oral solution, male fasted, read-out: AUC0-24 h): 2140 ng·h/mL | AUC(0-t) (100 mg, single 100 mg oral solution, male fasted, read-out: AUClast): 2140 ng·h/mL | half-life (100 mg, single 100 mg oral solution, male fasted, read-out: t1/2, dom (converted)): 1.9 h | half-life (100 mg, single 100 mg oral solution, male fasted, read-out: t1/2, λz (converted)): 5 h | Tmax (100 mg, single 100 mg oral solution, male fasted, read-out: tmax, median (min-max)): 0.5 h | AUC(0-inf) [3]: 1760 ng·h/mL | Cmax [3]: 277 ng/mL | AUC(0-t) (100 mg, single 100 mg oral solution, male fed (high-fat breakfast), read-out: AUC0-24 h): 1720 ng·h/mL | AUC(0-t) (100 mg, single 100 mg oral solution, male fed (high-fat breakfast), read-out: AUClast): 1750 ng·h/mL | half-life (100 mg, single 100 mg oral solution, male fed (high-fat breakfast), read-out: t1/2, dom (converted)): 2 h | half-life (100 mg, single 100 mg oral solution, male fed (high-fat breakfast), read-out: t1/2, λz (converted)): 10.8 h | Tmax (100 mg, single 100 mg oral solution, male fed (high-fat breakfast), read-out: tmax, median (min-max)): 2.5 h | AUC(0-inf) [4]: 1500 ng·h/mL | Cmax [4]: 345 ng/mL | AUC(0-t) (105 mg, single 105 mg (3 × 35 mg) oral capsule, male fasted, read-out: AUC0-24 h): 1320 ng·h/mL | AUC(0-t) (105 mg, single 105 mg (3 × 35 mg) oral capsule, male fasted, read-out: AUClast): 1450 ng·h/mL | half-life (105 mg, single 105 mg (3 × 35 mg) oral capsule, male fasted, read-out: t1/2, dom (converted)): 1.9 h | half-life (105 mg, single 105 mg (3 × 35 mg) oral capsule, male fasted, read-out: t1/2, λz (converted)): 14.2 h | Tmax (105 mg, single 105 mg (3 × 35 mg) oral capsule, male fasted, read-out: tmax, median (min-max)): 1.5 h | AUC(0-inf) [5]: 2780 ng·h/mL | Cmax [5]: 1210 ng/mL | AUC(0-t) (200 mg, single 200 mg oral solution, male fasted, read-out: AUC0-24 h): 2750 ng·h/mL | AUC(0-t) (200 mg, single 200 mg oral solution, male fasted, read-out: AUClast): 277 ng·h/mL | half-life (200 mg, single 200 mg oral solution, male fasted, read-out: t1/2, dom (converted)): 1.8 h | half-life (200 mg, single 200 mg oral solution, male fasted, read-out: t1/2, λz (converted)): 12.9 h | Tmax (200 mg, single 200 mg oral solution, male fasted, read-out: tmax, median (min-max)): 1 h | AUC(0-inf) [6]: 4200 ng·h/mL | Cmax [6]: 1920 ng/mL | AUC(0-t) (400 mg, single 400 mg oral solution, male fasted, read-out: AUC0-24 h): 3700 ng·h/mL | AUC(0-t) (400 mg, single 400 mg oral solution, male fasted, read-out: AUClast): 3830 ng·h/mL | half-life (400 mg, single 400 mg oral solution, male fasted, read-out: t1/2, dom (converted)): 2.2 h | half-life (400 mg, single 400 mg oral solution, male fasted, read-out: t1/2, λz (converted)): 13.2 h | Tmax (400 mg, single 400 mg oral solution, male fasted, read-out: tmax, median (min-max)): 0.75 h | half-life (single 4 to 400 mg oral solution, male fasted, read-out: mean t1/2, dom across doses): 1.5 to 2.2 h | half-life (single 4 to 400 mg oral solution, male fasted, read-out: mean t1/2, λz across doses): 1.6 to 13.2 h | Tmax (single 4 to 400 mg oral solution, male fasted, read-out: median tmax across doses): 0.5 to 1 h | AUC∞/Dose (single 4 mg oral solution, male fasted): 38.9 (12.5) h · ng/mL/mg | AUC∞/Dose [7]: 26.4 (9.07) h · ng/mL/mg | Cmax/Dose [7]: 7.33 ng/mL | mean Cmax and AUCs, females higher than males by (single 36 mg fasted): 17-27% | AUC∞/Dose (single 36 mg oral solution, female fasted): 1.9 (0.5) h · ng/mL/mg | AUC∞/Dose (single 36 mg oral solution, male fasted): 17.9 (6.64) h · ng/mL/mg | mean Cmax and AUCs, females lower than males by (single 100 mg fasted): 30-35% | AUC∞/Dose [8]: 13.4 (4.60) h · ng/mL/mg | t1/2, λz [8]: 11.67 (7.8)^c h | AUC∞/Dose (single 100 mg oral solution, male fasted): 20.6 (7.60) h · ng/mL/mg | AUC∞/Dose (single 100 mg oral solution, male fed (high-fat breakfast)): 17.6 (4.20) h · ng/mL/mg | Cmax lowered by high-fat meal (single 100 mg, fed vs fasted): approximately 70% | AUC∞/Dose (single 105 mg (3 × 35 mg) oral capsule, male fasted): 14.3 (7.59) h · ng/mL/mg | AUC∞/Dose (single 200 mg oral solution, male fasted): 13.9 (3.80) h · ng/mL/mg | AUC∞/Dose (single 400 mg oral solution, male fasted): 9.11 (4.68) h · ng/mL/mg
